d = 2'-deoxy (DNA); r = 2'-OH (RNA)
Legend:
[1] = tested on: U87MG transplanted tumor; assay: U87MG transplanted tumor growth in nude mice; design: species or system BALB/c nude mice; conditions: U87MG xenograft, day 13; saRNA (in vivo-jetPEI) 1 mg/kg intratumor days 1, 4, 7, 10; regorafenib 3 mg/kg intragastric daily day 1-12; control 406%
Procedure: To prepare the saRNA formulation, in vivo-jetPEI (201-10G, Polyplus-transfection, France) was adopted as an saRNA delivery system. The preparation process is briefly described as follows: an saRNA was first diluted in a 10% glucose solution to give a solution A; a required amount of in vivo-jetPEI was diluted in 10% glucose solution to give a solution B; then, equal volumes of the solution A and the solution B were mixed (nitrogen-to-phosphorus ratio: 8; final concentration of glucose: 5%). After mixing the mixture was let to stand under room temperature for 15 minutes for later use.
The glioma cell line U87MG were grown to the logarithmic phase, counted, then subcutaneously inoculated at a concentration of 9×10^7 cells/mL into the right armpit of BALB/c nude mice at 0.1 mL per mouse. […] After the initial administration, the long diameter and short diameter of each tumor were measured with a vernier caliper every two days. The tumor volume was calculated according to the formula V=(l×w^2)/2, wherein 1 represents the longest diameter of the tumor and w represents the diameter parallel to the surface of the tumor and perpendicular to the long diameter. A tumor growth curve and size and morphology of the tumor anatomy were recorded during the administration.

[2] = tested on: U87MG cells; assay: saRNA in combination with chemical drugs, CCK-8 viability and combination index (Compusyn), U87MG; type: cell-based, human
Procedure: (§1) The sRNAs were transfected into cancer cells at different concentrations in combination with different chemical drugs. In FIG. 9A, cell viability in the saRNA treatment group was evaluated by the CCK-8 method and recorded as a percentage relative to the viability of cells in a control (Mock) treatment group. In FIG. 9B, Compusyn© version 1.0 software was used to draw a combination index graphs; and to calculate combination index values as shown in FIG. 9C.
(§2) The compounds used in the study included: Sorafenib (Sora) (SELLECK, S1040), Lenvatinib (Lenv) (SELLECK, S1164), Regorafenib (Rego) (SELLECK, S1178), and Cabozantinib (Cabo) (SELLECK, S1119). Cells were transfected with each candidate saRNAs at varying concentration gradients for 24 hours. Thereafter, the aforementioned compounds were added to the transfected cells at a concentration of 5 μM and the cells were incubated with the compounds for 48 hours. Cell viability was measured using the CCK-8 method. Compusyn© version 1.0 software (ComboSyn, Inc. Paramus, N.J., USA) was used to analyze the combination index (CI) of drugs, wherein CI<1 represented a synergistic effect, CI=1 represented an additive effect, and CI>1 represented an antagonistic effect.

[3] = tested on: SK-HEP-1 cells; assay: Cell viability by CCK-8 method, SK-HEP-1; type: cell-based, human; conditions: SK-HEP-1, 10 nM, 72 h, FIG. 6B
Procedure: (§3) 8 LHPP promoter-targeting saRNAs were individually transfected into liver cancer cells at 10 nM for 72 h. In FIG. 6A, the expression level of LHPP mRNA was analyzed by RT-qPCR. In FIG. 6B, cell viability in the saRNA treatment group was evaluated by the CCK-8 method and recorded as a percentage relative to the viability of cells in a control (Mock) treatment group.
(§4) The cell viability was detected by the following CCK-8 method: the cCells were plated into a 96-well plate at 3-5×10^3 cells/well, cultured overnight, and transfected with the oligonucleotide duplexes. After 72 hour of transfection, 10 uL of CCK-8 solution (Dojindo Molecular Technologies) was added into each well. After 1 hour of incubation at 37° C., a microplate reader was used to measure absorbances at 450 nm. […]

[4] = tested on: Hep3B cells; assay: Cell viability by CCK-8 method, Hep3B; type: cell-based, human; conditions: 10 nM, 72 h, FIG. 6B
Procedure: as §3, §4

[5] = tested on: HepG2 cells; assay: saRNA in combination with chemical drugs, CCK-8 viability and combination index (Compusyn), HepG2; type: cell-based, human
Procedure: as §1, with “The saRNAs” for “The sRNAs”, “with a panel of” for “with different”, “FIG. 8A,” for “FIG. 9A,”, “FIG. 8B,” for “FIG. 9B,”, “FIG. 8C.” for “FIG. 9C.”
as §2

RAG7-133: saRNA duplex; sense GCUCUUUGUCCGCUGAUCUTT (SEQ ID NO: 1), antisense AGAUCAGCGGACAAAGAGCTT (SEQ ID NO: 165) (sugars from the 5' end r19 d2, backbone not given here)
tumor volume increase compared with that at the beginning of treatment [1]: 167%
combination index (CI) ([2]; saRNA 1.0 nM to 100 nM with Cabozantinib 5 μM): < 0.1
combination index (CI) ([2]; saRNA 1.0 nM to 100 nM with Lenvatinib 5 μM): < 0.1
combination index (CI) ([2]; saRNA with all the four compounds (Sorafenib, Lenvatinib, Regorafenib, Cabozantinib) 5 μM): < 1
cell proliferation (cell viability, CCK-8) [3]: inhibited cell proliferation
cell proliferation (cell viability, CCK-8) [4]: inhibited cell proliferation
combination index (CI) ([5]; high dose (25 nM to 100 nM) saRNA with Regorafenib 5 μM): < 0.3
combination index (CI) ([5]; saRNA with Cabozantinib 5 μM): < 1
combination index (CI) ([5]; saRNA with Lenvatinib 5 μM): > 1
combination index (CI) ([5]; saRNA with Sorafenib 5 μM): < 1

— patent US20220096516A1, “OLIGONUCLEOTIDE MOLECULE AND APPLICATION THEREOF IN TUMOR THERAPY” (Ractigen Therapeutics, priority 2019, published 2022)
